Experimental findings from patent US20120316199A1, “COMPOSITIONS AND METHODS FOR TREATING, CONTROLLING, REDUCING, OR AMELIORATING INFLAMMATORY PAIN” (priority 2011, published 2012) are described below.

“And” between values parts separate entries of the source, which are not always exact repeats. Equal values may be shown once. “Also recorded” adds a separate entry of the source.

For data set [1], the system named is intraocular pressure (IOP). Kind of data set: Intraocular pressure in New Zealand White rabbits, topical dosing four times daily. In kind it is in vivo. On the procedure: (§1) On Days 1-31, animals received daily topical doses of the appropriate test article into the right eye. Animals were dosed four times per day, with doses administered 2 hours apart. Doses were administered using a calibrated 50-μL pipette. The eyelids were held close for 10 seconds immediately following dosing. The time of each dose administration was recorded.
Intraocular pressure (“IOP”) was determined for both eyes of each animal on Days 3, 5, 10, 12, 16, 18, 22, 24, 26, 30, and 32. IOP was evaluated with a Medtronic Solan, Model 30 classic pneumatonometer. Proparacaine hydrochloride 0.5% (1 drop) was delivered to each eye prior to IOP measurement. IOP was measured on Monday. Wednesday, and Friday of each week. A two-point diurnal curve was established: IOP was recorded at 8 a.m. and 12 p.m. on Day 3, and at 8 a.m. and 2 p.m. on later days, with a ±1 hour range for each of these times. The time of the measurements was recorded.
Descriptive statistics were prepared for IOP data of each treatment group (left and right eyes separately) at each measurement interval. The statistics included the number of observations (“N”) mean, standard deviation (“STD”), and standard error (“SEM”). Statistical analyses were conducted on IOP results using Statistical Analysis Systems (SAS Institute. Inc., Cary, N.C. V8.0). Parameters were evaluated using analysis of variance/GLM Procedure followed by Tukey's Standardized Range Test (Tukey, 1985) for post hoc comparisons of group means. The level of significance was set at a probability of p<0.05 for all statistical procedures. Group IOP means were compared at each interval, with left and right eyes compared separately.

Data set [2] concerns iris and conjunctival vessels, anterior chamber. Kind of data set: Clinical evaluation by slit lamp (clinical score), rabbit paracentesis model. Set-up: key to Clinical Score −180 min / Clinical Score −5 min / Clinical Score +115 min: 0=normal; 1=discrete dilatation of iris and conjunctival vessels; 2=moderate dilatation of iris and conjunctival vessels; 3=intense iridal hyperemia with flare in the anterior chamber; 4=intense iridal hyperemia with flare in the anterior chamber and presence of fibrinous exudates. In kind it is in vivo, Rabbit (New Zealand). To be noted: for Clinical Score −5 min: 5 min before the first paracentesis; for Clinical Score −5 min / Clinical Score +115 min / Clinical Score −180 min: raw data per eye; for Clinical Score +115 min: 5 min before the second paracentesis; for Clinical Score −180 min: basal.

For data set [3], the system named is protein concentration in the aqueous humor. Kind of data set: Protein measurement in aqueous humor, rabbit paracentesis model. The format is in vivo, Rabbit (New Zealand). The settings on record: for Protein level in aqueous humor, Mean / Protein level in aqueous humor, raw data: second paracentesis; for Protein level in aqueous humor, Mean: group mean; for Protein level in aqueous humor, raw data: per eye. On the procedure:
(§2) Each rabbit was placed in a restraint device and tagged with the alphanumeric code. The formulations were instilled (50 μl) into the conjunctival sac of both eyes 180, 120, 90 and 30 min before the first paracentesis; then 15, 30, 90 min after the first paracentesis. To perform the first paracentesis the animals were anaesthetized by intravenous injection of 5 mg/kg Zoletil® (Virbac; 2.5 mg/kg tiletamine HCl and 2.5 mg/kg zolazepam HCl) and one drop of local anesthetic (Novesina®, Novartis) was administered to the eye. Anterior chamber paracentesis was performed with a 26 G needle attached to a tuberculin syringe; the needle was introduced into the anterior chamber through the cornea, taking care not to damage the tissues. Two hours after the first paracentesis, the animals were sacrificed with 0.4 ml Tanax® (Intervet International B.V.) and the second paracentesis was performed. About 100 μl of aqueous humor were removed at the second paracentesis. Aqueous humor was immediately split in four aliquots and stored at −80° C. until analysis. Then both eyes were enucleated and the iris-ciliary body was carefully excised, placed in polypropylene tubes, and stored at −80° C. until analysis.
For protein concentration determination in the aqueous humor we used the Protein Quantification Kit (Fluka; Cat. No. 77371; Lot. No. 1303129). Five microliters of aqueous humor were diluted to 100 μl with water. Twenty microliters of samples and of standards were load into a 96-well plate and recorded in a plate layout. Samples were treated following the assay procedure described in the kit. A microplate reader (GDV, Italy; model DV 990 B/V6) set at 670 nm was used for making the calibration and analyzing the samples.
(§3) Pupillary diameter, PGE2, protein, PMN, and MPO were expressed as mean±SEM. Statistical analysis was performed using one way ANOVA followed by a Newman-Keuls post hoc test. Clinical score was expressed as % of eyes and the statistical analysis was performed using Kruskal-Wallis followed by a Dunn post hoc test. P<0.05 was considered statistically significant in both cases. Prism 4 software (GraphPad Software, Inc.) was used for the analysis and graphs.

The test system of a further data set is pupillary diameter. Kind of data set: Pupillary diameter measurement, rabbit paracentesis model. In kind it is in vivo, Rabbit (New Zealand). To be noted: for Pupillary diameter T2: −5 min: 5 min before the first paracentesis; for Pupillary diameter T2: −5 min / Pupillary diameter T3: +115 min / Pupillary diameter T1: −180 min: raw data per eye; for Pupillary diameter T3: +115 min: 5 min before the second paracentesis; for Pupillary diameter T1: −180 min: basal; for Mean (mm) Δ(T3 − T1) of pupillary diameter: group mean, n=8 eyes.

The subject of data set [4] is PGE2 in the aqueous humor. The data set is described as follows: Prostaglandin E2 (PGE2) measurement in aqueous humor, rabbit paracentesis model. The format is in vivo, Rabbit (New Zealand). To be noted: for PGE2 level in aqueous humor, Mean: second paracentesis, group mean. On the procedure:
as §2
For the quantitative determination of PGE2 in the aqueous humor we used the PGE2 Immunoassay kit (R&D Systems; Cat. No. KGE004; Lot. No. 240010). Eleven microliters or 16 μl of aqueous humor were diluted to 110 μl or 160 μl with the calibrator diluent solution provided with the kit. One hundred microliters of samples and of standards were load into a 96-well plate and recorded in a plate layout. Samples were treated following the assay procedure described in the kit. A microplate reader (GDV, Italy; model DV 990 B/V6) set at 450 nm (wavelength correction at 540 nm) was used for making the calibration and analyzing the samples.
as §3

Data set [5] deals with New Zealand White rabbits. The data set is described as follows: Mortality/morbidity in New Zealand White rabbits, topical dosing four times daily. In kind it is in vivo. On the procedure: as §1
Animals determined to be moribund were euthanized with an intravenous injection of commercial euthanasia solution.

The next data set has as its system rabbit eyes. Kind of data set: Ophthalmic observations (slit lamp, McDonald Shadduck scores) in New Zealand White rabbits. In kind it is in vivo. Set-up: key to Ophthalmic Observation (Slit-Lamp): AN = Appeared normal. The procedure: Prior to placement on study, each animal underwent a pre-treatment ophthalmic examination (slit lamp and indirect ophthalmoscopy). Observations were scored according to the McDonald Shadduck system and recorded using a standardized data collection sheet.
as §1
Ophthalmic examinations (slit lamp) were performed prior to the first dosing on Days 5, 12, 22, 26, and 33. Ocular findings were scored according to the McDonald Shadduck system and recorded using a standardized data collection sheet.

The subject of data set [6] is MPO activity in iris-ciliary body. Kind of data set: Myeloperoxidase (MPO) activity in iris-ciliary body, rabbit paracentesis model. The format is in vivo, Rabbit (New Zealand). The settings on record: for MPO activity in iris-ciliary body: individual samples collected after the second paracentesis; for MPO activity in iris-ciliary body, Mean: after the second paracentesis, group mean. On the procedure: as §2
The activity of MPO was measured as previously described by Williams et al.[5] The iris-ciliary bodies were carefully dried, weighed and immersed in 1 ml of hexa-decyl-trimethyl-ammonium bromide solution. Then, the samples were sonicated for 10 sec on ice by a ultrasound homogenizer (HD 2070, Bandelin electronic), freeze-thawed three times, sonicated for 10 sec and centrifuged at 14,000 g for 10 min to remove cellular debris. An aliquot of the supernatant (40-200 μl) was diluted to 3 ml with the o-dianisidine 2HCl/H2O2 solution. The change in absorbance at 460 nm was continuously monitored for 5 min by a spectrophotometer (UV/Vis Spectrometer Lambda EZ 201; Perkin Elmer). The slope of the line (Δ/min) was determined for each sample and used to calculate the number of units of MPO in the tissue as follows:
Values were expressed as units of MPO/g of tissue.
as §3

The mark [7] stands for this setting: 0.1% formulation, +115 min, N=8 eyes.
The mark [8] stands for this setting: 0.1% formulation, −5 min, N=8 eyes.
The mark [9] stands for this setting: Group A, 0.1% (0.05 mg/dose) 4 x daily, individual rabbits.
[10] abbreviates: Group A, 0.1%, treated right eye, individual animals.

`C[C@@H]1C[C@H]2[C@@H]3CCC4=CC(=O)C=C[C@]4(C)[C@@]3(F)[C@@H](O)C[C@]2(C)[C@@]1(O)C(=O)CO` [Dex, dexamethasone, reference compound]: in data set [1] (0.1% dexamethasone (Group A), on several days, one or both eyes, p<0.05), the “Mean IOP of the group compared with corresponding eyes of other groups” value is given as “significantly higher”. Also, the “Course of mean IOP after treatment began” value in data set [1] (left and right eyes, dexamethasone 0.1% (Group A), BOL-303242-X 10, 5, 1 mg/g (Groups B-D), four times daily) is reported as “increased sharply”. In data set [2] (0.1% formulation), the “Clinical Score −5 min” value was 0 and 1; the “Clinical Score +115 min” value was 1 and 3; the “Clinical Score −180 min” value stood at 0. In data set [2] (setting [7]), the “Percentage of eyes with clinical score 1” value is recorded as 75% and the “Percentage of eyes with clinical score 3” value amounted to 25%. In data set [2] (setting [8]), the “Percentage of eyes with clinical score 0” value was found to be 75% and the “Percentage of eyes with clinical score 1” value turned out to be 25%. The “Percentage of eyes with clinical score 0” value in data set [2] (0.1% formulation, −180 min (basal), N=8 eyes) amounted to 100%. Moreover, in data set [3] (0.1% formulation), the “Protein level in aqueous humor, Mean” value stood at 33.457 mg/mL; the “Protein level in aqueous humor, raw data” value was 31.31 mg/mL and 31.81 mg/mL and 35.95 mg/mL and 37.15 mg/mL and 32.12 mg/mL and 32.40 mg/mL. Besides, in the data set on pupillary diameter (0.1% formulation), the “Pupillary diameter T2: −5 min” value was 5.5 mm and 6.5 mm and 6.0 mm and 7.0 mm and 7.5 mm; the “Pupillary diameter T3: +115 min” value is 5.5 mm and 6.0 mm and 4.5 mm and 5.0 mm and 6.5 mm; the “Pupillary diameter T1: −180 min” value is 6.0 mm and 7.0 mm and 5.5 mm and 6.5 mm; the “Mean (mm) Δ(T3 − T1) of pupillary diameter” value is recorded as −0.8 mm. Besides, in data set [4] (0.1% formulation), the “PGE2 level in aqueous humor, Mean” value turned out to be 2.263 ng/mL. Also, in data set [5] (0.05 mg/dose (0.1% dexamethasone suspension or 1 mg/g BOL-303242-X), right eye four times daily, Days 1-31), the “Mortality (rabbits that died or were euthanized between Days 11 and 33)” value was “Six of ten”. Besides, in data set [5] (setting [9]), the “Day of Death (day euthanized or found dead)” value is 25 (2×) and 27 (2×) and 23 and 13; the “Recorded Notes on death” value was “Euthanized. Very sick/poor health; left (untreated) eye; also recorded: Euthanized due to severe profuse hemorrhagic diarrhea; also recorded: Found dead. No rigor mortis present”. The molecule also registered a Mortality rate in data set [5] (dexamethasone suspension 0.05 mg/dose four times daily up to 31 days) of 6 deaths per 10 rabbits. Further, in the data set with rabbit eyes (setting [10]), the “Conjunctival congestion Score” value is 1 and the “Ophthalmic Observation (Slit-Lamp)” value is on record as “AN”. For the same molecule, the “Ophthalmic observation associated with unilateral topical instillation” value in the data set with rabbit eyes (four times daily up to 31 days, BOL-303242-X 0.05, 0.25, or 0.5 mg/dose, dexamethasone 0.05 mg/dose) is given as “sporadic mild conjunctival congestion”. Moreover, the “MPO activity in iris-ciliary body” value in data set [6] (0.1% Dex) turned out to be 1.32 Unit/g. Further, the “MPO activity in iris-ciliary body, Mean” value in data set [6] (0.1% formulation) was found to be 0.618 MPO Unit/g.

As for `CC(C(=O)O)c1ccc(-c2ccccc2)c(F)c1` (stereo not shown) [F, flurbiprofen], in data set [2] (0.03% formulation), the “Clinical Score −5 min” value came to 0, the “Clinical Score +115 min” value is recorded as 2 and the “Clinical Score −180 min” value amounted to 0. Also, the “Percentage of eyes with clinical score 2” value in data set [2] (0.03% formulation, +115 min, N=8 eyes) turned out to be 100%. Further, the “Percentage of eyes with clinical score 0” value in data set [2] (0.03% formulation, −5 min, N=8 eyes) is 100%. The “Percentage of eyes with clinical score 0” value in data set [2] (0.03% formulation, −180 min (basal), N=8 eyes) came out at 100%. Besides, in data set [3] (0.03% formulation, p<0.001), the “Protein in aqueous humor, statistical significance vs CTR” value is “statistical significance”. In data set [3] (0.03% formulation), the “Protein level in aqueous humor, Mean” value was determined as 20.910 mg/mL; the “Protein level in aqueous humor, raw data” value was 20.78 mg/mL and 28.80 mg/mL and 23.41 mg/mL and 20.21 mg/mL and 17.53 mg/mL and 15.12 mg/mL and 20.52 mg/mL. In the data set on pupillary diameter (0.03% formulation), the “Pupillary diameter T2: −5 min” value is 6.0 mm and 6.5 mm and 7.0 mm and 5.5 mm; the “Pupillary diameter T3: +115 min” value is 4.0 mm and 3.5 mm and 5.5 mm and 5.0 mm and 4.5 mm and 6.0 mm; the “Pupillary diameter T1: −180 min” value is 5.0 mm and 7.0 mm and 6.0 mm and 5.5 mm; the “Mean (mm) Δ(T3 − T1) of pupillary diameter” value is −0.9 mm. For the same molecule, the “PGE2 in aqueous humor, statistical significance versus CTR” value in data set [4] (0.03% formulation, p<0.05) is recorded as “statistically significant versus CTR”. Also, the “PGE2 level in aqueous humor, Mean” value in data set [4] (0.03% formulation) is 1.189 ng/mL. Besides, the “MPO activity in iris-ciliary body” value in data set [6] (0.03% F) is listed as 1.27 Unit/g. The “MPO activity in iris-ciliary body, Mean” value in data set [6] (0.03% formulation) is 0.906 MPO Unit/g.
